# Measurements: ChEMBL document CHEMBL4420075, “Seriniquinones, melanoma-specific anticancer agents” (2016)
# Experiments:
# Type in all cases: functional
# MOLT-4 = assay: Growth inhibition of human MOLT4 cells assessed as cell growth incubated for 48 hrs by sulforhodamine B assay; parameters: concentration or dose not given beside the values
# RPMI-8226 = assay: Growth inhibition of human RPMI8226 cells assessed as cell growth incubated for 48 hrs by sulforhodamine B assay; parameters: concentration or dose not given beside the values
# K562 = assay: Growth inhibition of human K562 cells assessed as cell growth incubated for 48 hrs by sulforhodamine B assay; parameters: concentration or dose not given beside the values
# CCRF-CEM = assay: Growth inhibition of human CCRF-CEM cells assessed as cell growth incubated for 48 hrs by sulforhodamine B assay; parameters: concentration or dose not given beside the values
# HL-60(TB) = assay: Growth inhibition of human HL-60(TB) cells assessed as cell growth incubated for 48 hrs by sulforhodamine B assay; parameters: concentration or dose not given beside the values
# SR = assay: Growth inhibition of human SR cells assessed as cell growth incubated for 48 hrs by sulforhodamine B assay; parameters: concentration or dose not given beside the values
# A549 = assay: Growth inhibition of human A549/ATCC cells assessed as cell growth incubated for 48 hrs by sulforhodamine B assay; parameters: concentration or dose not given beside the values
# HOP-62 = assay: Growth inhibition of human HOP62 cells assessed as cell growth incubated for 48 hrs by sulforhodamine B assay; parameters: concentration or dose not given beside the values
# HOP-92 = assay: Growth inhibition of human HOP92 cells assessed as cell growth incubated for 48 hrs by sulforhodamine B assay; parameters: concentration or dose not given beside the values
# NCI-H226 = assay: Growth inhibition of human NCI-H226 cells assessed as cell growth incubated for 48 hrs by sulforhodamine B assay; parameters: concentration or dose not given beside the values
# NCI-H23 = assay: Growth inhibition of human NCI-H23 cells assessed as cell growth incubated for 48 hrs by sulforhodamine B assay; parameters: concentration or dose not given beside the values
# NCI-H322M = assay: Growth inhibition of human NCI-H322M cells assessed as cell growth incubated for 48 hrs by sulforhodamine B assay; parameters: scale not given: the % may be the effect or the level left
# NCI-H460 = assay: Growth inhibition of human NCI-H460 cells assessed as cell growth incubated for 48 hrs by sulforhodamine B assay; parameters: concentration or dose not given beside the values
# NCI-H522 = assay: Growth inhibition of human NCI-H522 cells assessed as cell growth incubated for 48 hrs by sulforhodamine B assay; parameters: concentration or dose not given beside the values
# COLO 205 = assay: Growth inhibition of human COLO205 cells assessed as cell growth incubated for 48 hrs by sulforhodamine B assay; parameters: concentration or dose not given beside the values
# HCC 2998 = assay: Growth inhibition of human HCC2998 cells assessed as cell growth incubated for 48 hrs by sulforhodamine B assay; parameters: concentration or dose not given beside the values
# HCT-116 = assay: Growth inhibition of human HCT116 cells assessed as cell growth incubated for 48 hrs by sulforhodamine B assay; parameters: concentration or dose not given beside the values
# HCT-15 = assay: Growth inhibition of human HCT15 cells assessed as cell growth incubated for 48 hrs by sulforhodamine B assay; parameters: scale not given: the % may be the effect or the level left
# HT-29 = assay: Growth inhibition of human HT-29 cells assessed as cell growth incubated for 48 hrs by sulforhodamine B assay; parameters: concentration or dose not given beside the values
# KM12 = assay: Growth inhibition of human KM12 cells assessed as cell growth incubated for 48 hrs by sulforhodamine B assay; parameters: concentration or dose not given beside the values
# SW-620 = assay: Growth inhibition of human SW620 cells assessed as cell growth incubated for 48 hrs by sulforhodamine B assay; parameters: concentration or dose not given beside the values
# SF-268 = assay: Growth inhibition of human SF268 cells assessed as cell growth incubated for 48 hrs by sulforhodamine B assay; parameters: concentration or dose not given beside the values
# SF-295 = assay: Growth inhibition of human SF295 cells assessed as cell growth incubated for 48 hrs by sulforhodamine B assay; parameters: concentration or dose not given beside the values
# SF-539 = assay: Growth inhibition of human SF539 cells assessed as cell growth incubated for 48 hrs by sulforhodamine B assay; parameters: scale not given: the % may be the effect or the level left
# SNB-19 = assay: Growth inhibition of human SNB19 cells assessed as cell growth incubated for 48 hrs by sulforhodamine B assay; parameters: concentration or dose not given beside the values
# SNB-75 = assay: Growth inhibition of human SNB75 cells assessed as cell growth incubated for 48 hrs by sulforhodamine B assay; parameters: concentration or dose not given beside the values
# U-251 = assay: Growth inhibition of human U251 cells assessed as cell growth incubated for 48 hrs by sulforhodamine B assay; parameters: concentration or dose not given beside the values
# LOX IMVI = assay: Growth inhibition of human LOXIMVI cells assessed as cell growth incubated for 48 hrs by sulforhodamine B assay; parameters: concentration or dose not given beside the values
# Malme-3M = assay: Growth inhibition of human MALME-3M cells assessed as cell growth incubated for 48 hrs by sulforhodamine B assay; parameters: scale not given: the % may be the effect or the level left
# M14 = assay: Growth inhibition of human M14 cells assessed as cell growth incubated for 48 hrs by sulforhodamine B assay; parameters: concentration or dose not given beside the values
# MDA-MB-435 = assay: Growth inhibition of human MDA-MB-435 cells assessed as cell growth incubated for 48 hrs by sulforhodamine B assay; parameters: concentration or dose not given beside the values
# SK-MEL-2 = assay: Growth inhibition of human SK-MEL-2 cells assessed as cell growth incubated for 48 hrs by sulforhodamine B assay; parameters: concentration or dose not given beside the values
# SK-MEL-28 = assay: Growth inhibition of human SK-MEL-28 cells assessed as cell growth incubated for 48 hrs by sulforhodamine B assay; parameters: concentration or dose not given beside the values
# SK-MEL-5 = assay: Growth inhibition of human SK-MEL-5 cells assessed as cell growth incubated for 48 hrs by sulforhodamine B assay; parameters: concentration or dose not given beside the values
# UACC-257 = assay: Growth inhibition of human UACC257 cells assessed as cell growth incubated for 48 hrs by sulforhodamine B assay; parameters: concentration or dose not given beside the values
# UACC-62 = assay: Growth inhibition of human UACC62 cells assessed as cell growth incubated for 48 hrs by sulforhodamine B assay; parameters: concentration or dose not given beside the values
# IGROV-1 = assay: Growth inhibition of human IGROV1 cells assessed as cell growth incubated for 48 hrs by sulforhodamine B assay; parameters: scale not given: the % may be the effect or the level left
# OVCAR-3 = assay: Growth inhibition of human OVCAR3 cells assessed as cell growth incubated for 48 hrs by sulforhodamine B assay; parameters: concentration or dose not given beside the values
# OVCAR-4 = assay: Growth inhibition of human OVCAR4 cells assessed as cell growth incubated for 48 hrs by sulforhodamine B assay; parameters: concentration or dose not given beside the values
# OVCAR-5 = assay: Growth inhibition of human OVCAR5 cells assessed as cell growth incubated for 48 hrs by sulforhodamine B assay; parameters: scale not given: the % may be the effect or the level left
# OVCAR-8 = assay: Growth inhibition of human OVCAR8 cells assessed as cell growth incubated for 48 hrs by sulforhodamine B assay; parameters: concentration or dose not given beside the values
# NCI/ADR-RES = assay: Growth inhibition of human NCI/ADR-RES cells assessed as cell growth incubated for 48 hrs by sulforhodamine B assay; parameters: concentration or dose not given beside the values
# SK-OV-3 = assay: Growth inhibition of human SKOV3 cells assessed as cell growth incubated for 48 hrs by sulforhodamine B assay; parameters: concentration or dose not given beside the values
# 786-0 = assay: Growth inhibition of human 786-0 cells assessed as cell growth incubated for 48 hrs by sulforhodamine B assay; parameters: concentration or dose not given beside the values
# A498 = assay: Growth inhibition of human A498 cells assessed as cell growth incubated for 48 hrs by sulforhodamine B assay; parameters: concentration or dose not given beside the values
# ACHN = assay: Growth inhibition of human ACHN cells assessed as cell growth incubated for 48 hrs by sulforhodamine B assay; parameters: scale not given: the % may be the effect or the level left
# CAKI-1 = assay: Growth inhibition of human Caki1 cells assessed as cell growth incubated for 48 hrs by sulforhodamine B assay; parameters: concentration or dose not given beside the values
# RXF 393 = assay: Growth inhibition of human RXF393 cells assessed as cell growth incubated for 48 hrs by sulforhodamine B assay; parameters: concentration or dose not given beside the values
# SN12C = assay: Growth inhibition of human SN12C cells assessed as cell growth incubated for 48 hrs by sulforhodamine B assay; parameters: concentration or dose not given beside the values
# TK-10 = assay: Growth inhibition of human TK10 cells assessed as cell growth incubated for 48 hrs by sulforhodamine B assay; parameters: concentration or dose not given beside the values
# UO-31 = assay: Growth inhibition of human UO31 cells assessed as cell growth incubated for 48 hrs by sulforhodamine B assay; parameters: concentration or dose not given beside the values
# PC-3 = assay: Growth inhibition of human PC3 cells assessed as cell growth incubated for 48 hrs by sulforhodamine B assay; parameters: concentration or dose not given beside the values
# DU-145 = assay: Growth inhibition of human DU145 cells assessed as cell growth incubated for 48 hrs by sulforhodamine B assay; parameters: concentration or dose not given beside the values
# MCF7 = assay: Growth inhibition of human MCF7 cells assessed as cell growth incubated for 48 hrs by sulforhodamine B assay; parameters: concentration or dose not given beside the values
# MDA-MB-231 = assay: Growth inhibition of human MDA-MB-231 cells assessed as cell growth incubated for 48 hrs by sulforhodamine B assay; parameters: concentration or dose not given beside the values
# Hs-578T = assay: Growth inhibition of human Hs 578T cells assessed as cell growth incubated for 48 hrs by sulforhodamine B assay; parameters: concentration or dose not given beside the values
# BT-549 = assay: Growth inhibition of human BT549 cells assessed as cell growth incubated for 48 hrs by sulforhodamine B assay; parameters: concentration or dose not given beside the values
# T47D = assay: Growth inhibition of human T47D cells assessed as cell growth incubated for 48 hrs by sulforhodamine B assay; parameters: concentration or dose not given beside the values
# MDA-MB-468 = assay: Growth inhibition of human MDA-MB-468 cells assessed as cell growth incubated for 48 hrs by sulforhodamine B assay; parameters: concentration or dose not given beside the values
structure (smiles),measurement,setting,value
O=c1c2ccccc2c(=O)c2c1sc1c(=O)c3ccc(CCCO)cc3c(=O)c12,Activity,MOLT-4,-48.47%
same,Activity,RPMI-8226,-37.51%
same,Activity,K562,-26.48%
same,Activity,CCRF-CEM,-42.44%
same,Activity,HL-60(TB),-39.5%
same,Activity,SR,-22.18%
same,Activity,A549,-66.71%
same,Activity,HOP-62,-100%
same,Activity,HOP-92,-25.51%
same,Activity,NCI-H226,-53.49%
same,Activity,NCI-H23,-39.8%
same,Activity,NCI-H322M,-96.79%
same,Activity,NCI-H460,-65.79%
same,Activity,NCI-H522,-73.7%
same,Activity,COLO 205,-100%
same,Activity,HCC 2998,-89.21%
same,Activity,HCT-116,-56.49%
same,Activity,HCT-15,-68.1%
same,Activity,HT-29,-50.87%
same,Activity,KM12,-60.46%
same,Activity,SW-620,-71.53%
same,Activity,SF-268,-52.35%
same,Activity,SF-295,-93.12%
same,Activity,SF-539,-100%
same,Activity,SNB-19,-83.74%
same,Activity,SNB-75,-96.48%
same,Activity,U-251,-92.1%
same,Activity,LOX IMVI,-80.49%
same,Activity,Malme-3M,-94.59%
same,Activity,M14,-94.97%
same,Activity,MDA-MB-435,-94.78%
same,Activity,SK-MEL-2,-72.58%
same,Activity,SK-MEL-28,-91.59%
same,Activity,SK-MEL-5,-100%
same,Activity,UACC-257,-98.14%
same,Activity,UACC-62,-88.56%
same,Activity,IGROV-1,-77.75%
same,Activity,OVCAR-3,-43.56%
same,Activity,OVCAR-4,-100%
same,Activity,OVCAR-5,-95.91%
same,Activity,OVCAR-8,-30.24%
same,Activity,NCI/ADR-RES,-22.56%
same,Activity,SK-OV-3,-74.3%
same,Activity,786-0,-90.2%
same,Activity,A498,-93%
same,Activity,ACHN,-100%
same,Activity,CAKI-1,-39.14%
same,Activity,RXF 393,-77.25%
same,Activity,SN12C,-85.36%
same,Activity,TK-10,-94.99%
same,Activity,UO-31,-96.45%
same,Activity,PC-3,-10.27%
same,Activity,DU-145,-98.88%
same,Activity,MCF7,-57.56%
same,Activity,MDA-MB-231,-36.34%
same,Activity,Hs-578T,-11.73%
same,Activity,BT-549,-95.56%
same,Activity,T47D,-45.39%
same,Activity,MDA-MB-468,-69.73%
